According to patent publication US11535643B2, “Macrolides with modified desosamine sugars and uses thereof” (President and Fellows of Harvard College, priority 2015, dated 2022):
Values after ≈ are worked out from the molar mass of the structure shown. Read-outs that look alike come from different tables or passages of the source.

Assays:
Assay type in all cases: cell-based
S. aureus = test: Broth dilution MIC determination (CLSI) against S. aureus strains; settings: Staphylococcus aureus
In short: (§1)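 CLSI broth dilution MIC; panel of unique strains incl. multidrug-resistant ones, focus on macrolide-resistance mechanisms; azithromycin, solithromycin as controls.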

S. pneumoniae = test: Broth dilution MIC determination (CLSI) against S. pneumoniae strains; settings: Streptococcus pneumoniae
In short: as §1

S. pyogenes = test: Broth dilution MIC determination (CLSI) against S. pyogenes strains; settings: Streptococcus pyogenes
In short: as §1

E. faecalis = test: Broth dilution MIC determination (CLSI) against E. faecalis strains; settings: Enterococcus faecalis
In short: as §1

E. coli = test: Broth dilution MIC determination (CLSI) against E. coli strains; settings: Escherichia coli
In short: as §1

A. baumannii = test: Broth dilution MIC determination (CLSI) against A. baumannii strains; settings: Acinetobacter baumannii
In short: as §1

K. pneumoniae = test: Broth dilution MIC determination (CLSI) against K. pneumoniae strains; settings: Klebsiella pneumoniae
In short: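 Azithromycin and solithromycin served as controls; MICs were obtained by standard CLSI broth dilution on a strain panel including multidrug-resistant and macrolide-resistant isolates.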

P. aeruginosa = test: Broth dilution MIC determination (CLSI) against P. aeruginosa strains
In short: as §1

H. influenzae = test: Broth dilution MIC determination (CLSI) against H. influenzae strains; settings: Haemophilus influenzae
Description: Minimum inhibitory concentrations (MICs) for macrolides described herein have been determined for unique strains of S. aureus, S. pneumoniae, S. pyogenes, E. faecalis, E. coli, A. baumannii, K. pneumoniae, P. aeruginosa, and H. influenzae, including several multidrug-resistant strains, with a special focus on macrolide resistant mechanisms. Azithromycin and solithromycin were included as control compounds. CLSI standard procedures for broth dilution MIC determination were used. Data for exemplary compounds described herein is shown in Tables M1-M7 and in Tables N1-N4.

[1] = read-out: MIC S. aureus erm A genotype
[2] = ATCC49619, ATCC49619, read-out: MIC S. pneumoniae ATCC49619
[3] = read-out: MIC S. pneumoniae mef A genotype, mef A genotype
[4] = read-out: MIC S. pneumoniae mef A genotype, mef A genotype, first of two such columns (c3)
[5] = ATCC25922, ATCC25922, read-out: MIC E. coli ATCC25922
[6] = read-out: MIC E. coli NDM-1, NDM-1
[7] = ATCC29213, ATCC29213, read-out: MIC S. aureus ATCC29213
[8] = MRSA / USA100, MRSA: USA100, read-out: MIC S. aureus MRSA: USA100
[9] = MRSA / USA300, MRSA: USA300, read-out: MIC S. aureus MRSA: USA300
[10] = USA600, USA600, GISA, read-out: MIC S. aureus USA600, GISA
[11] = erm B + mef A genotype, read-out: MIC S. pneumoniae erm B + mef A genotype
[12] = erm B + tet(M, O) genotype, read-out: MIC S. pneumoniae erm B + tet(M, O) genotype
[13] = ATCC19615, ATCC19615, read-out: MIC S. pyogenes ATCC19615
[14] = macrolide-resistant, read-out: MIC S. pyogenes macrolide-resistant
[15] = ATCC29212, ATCC29212, read-out: MIC E. faecalis ATCC29212
[16] = Vancomycin-resistant, read-out: MIC E. faecalis Vancomycin-resistant
[17] = ATCC19606, ATCC19606, read-out: MIC A. baumannii ATCC19606
[18] = imipenem-resistant, read-out: MIC A. baumannii imipenem-resistant
[19] = ATCC10031, ATCC10031, read-out: MIC K. pneumoniae ATCC10031
[20] = KPC-2, read-out: MIC K. pneumoniae KPC-2
[21] = Pseudomonas aeruginosa, ATCC27853; read-out: MIC P. aeruginosa ATCC27853
[22] = ATCC49247, ATCC49247, read-out: MIC H. influenzae ATCC49247
[23] = erythro > 4, azithro 1, read-out: MIC H. influenzae erythro > 4, azithro 1

| Compound | MIC (S. aureus; [1]) [µg/mL] | MIC (S. pneumoniae; [2]) [µg/mL] | MIC (S. pneumoniae; [3]) [µg/mL] | MIC (S. pneumoniae; [4]) [µg/mL] | MIC (E. coli; [5]) [µg/mL] | MIC (E. coli; [6]) [µg/mL] | MIC (S. aureus; [7]) [µg/mL] | MIC (S. aureus; [8]) [µg/mL] | MIC (S. aureus; [9]) [µg/mL] | MIC (S. aureus; [10]) [µg/mL] | MIC (S. pneumoniae; [11]) [µg/mL] | MIC (S. pneumoniae; [12]) [µg/mL] | MIC (S. pyogenes; [13]) [µg/mL] | MIC (S. pyogenes; [14]) [µg/mL] | MIC (E. faecalis; [15]) [µg/mL] | MIC (E. faecalis; [16]) [µg/mL] | MIC (A. baumannii; [17]) [µg/mL] | MIC (A. baumannii; [18]) [µg/mL] | MIC (K. pneumoniae; [19]) [µg/mL] | MIC (K. pneumoniae; [20]) [µg/mL] | other results |
| --- | --- | --- | --- | --- | --- | --- | --- | --- | --- | --- | --- | --- | --- | --- | --- | --- | --- | --- | --- | --- | --- |
| CC[C@H]1OC(=O)[C@H](C)C(=O)[C@H](C)[C@@H](O[C@@H]2OC(CNC=N)CC(N(C)C)C2O)[C@](C)(OC)C[C@@H](C)CN[C@H](C)[C@H]2N(CCCCn3cc(-c4cccc(N)c4)nn3)C(=O)O[C@]12C (stereo partly drawn) [FSM-21861] | > 32 | 0.5 (≈ 0.575 µM) | 8 (≈ 9.19 µM) | 4 (≈ 4.6 µM) | > 32 | > 32 | – | – | – | – | – | – | – | – | – | – | – | – | – | – | MIC (S. aureus; ATCC29213, read-out: MIC S. aureus ATCC29213): > 32 µg/mL; MIC (S. aureus; MRSA / USA100, read-out: MIC S. aureus MRSA: USA100): > 32 µg/mL; MIC (S. aureus; MRSA / USA300, read-out: MIC S. aureus MRSA: USA300): > 32 µg/mL; MIC (S. aureus; USA600, read-out: MIC S. aureus USA600, GISA): > 32 µg/mL; MIC (S. pneumoniae; read-out: MIC S. pneumoniae erm B + mef A genotype, erm B + mef A genotype): 32 µg/mL; MIC (S. pneumoniae; read-out: MIC S. pneumoniae erm B + tet(M, O) genotype, erm B + tet(M, O) genotype): 0.25 µg/mL; MIC (S. pyogenes; ATCC19615, read-out: MIC S. pyogenes ATCC19615): 0.5 µg/mL (≈ 0.575 µM); MIC (S. pyogenes; read-out: MIC S. pyogenes macrolide-resistant): 8 µg/mL (≈ 9.19 µM); MIC (E. faecalis; ATCC29212, read-out: MIC E. faecalis ATCC29212): 4 µg/mL (≈ 4.6 µM); MIC (E. faecalis; read-out: MIC E. faecalis Vancomycin-resistant): > 32 µg/mL; MIC (A. baumannii; ATCC19606, read-out: MIC A. baumannii ATCC19606): > 32 µg/mL; MIC (A. baumannii; read-out: MIC A. baumannii imipenem-resistant): > 32 µg/mL; MIC (K. pneumoniae; ATCC10031, read-out: MIC K. pneumoniae ATCC10031): 16 µg/mL (≈ 18.4 µM); MIC (K. pneumoniae; read-out: MIC K. pneumoniae KPC-2): > 32 µg/mL; MIC (P. aeruginosa; Pseudomonas aeruginosa, ATCC27853, read-out: MIC P. aeruginosa ATCC27853): > 32 µg/mL; MIC (H. influenzae; ATCC49247, read-out: MIC H. influenzae ATCC49247): 32 µg/mL (≈ 36.8 µM); MIC (H. influenzae; read-out: MIC H. influenzae erythro > 4, azithro 1): 32 µg/mL (≈ 36.8 µM) |
| CC[C@H]1OC(=O)[C@H](C)C(=O)[C@H](C)[C@@H](O[C@@H]2OC(CNS(=O)(=O)c3cccnc3)CC(N(C)C)C2O)[C@](C)(OC)C[C@@H](C)CN[C@H](C)[C@H]2N(CCCCn3cc(-c4cccc(N)c4)nn3)C(=O)O[C@]12C (stereo partly drawn) [FSM-21876] | > 32 | 0.125 (≈ 0.127 µM) | 16 (≈ 16.3 µM) | 4 (≈ 4.06 µM) | 32 (≈ 32.5 µM) | > 32 | 16 (≈ 16.3 µM) | > 32 | > 32 | > 32 | 8 | 0.0313 | 0.0625 (≈ 0.0635 µM) | 2 (≈ 2.03 µM) | 2 (≈ 2.03 µM) | > 32 | > 32 | 32 (≈ 32.5 µM) | 16 (≈ 16.3 µM) | 32 (≈ 32.5 µM) | MIC (P. aeruginosa; [21]): > 32 µg/mL; MIC (H. influenzae; [22]): 4 µg/mL (≈ 4.06 µM); MIC (H. influenzae; [23]): 16 µg/mL (≈ 16.3 µM) |
| CC[C@H]1OC(=O)[C@H](C)C(=O)[C@H](C)[C@@H](O[C@@H]2OC(CN(CCN)CCN)CC(N(C)C)C2O)[C@](C)(OC)C[C@@H](C)CN[C@H](C)[C@H]2N(CCCCn3cc(-c4cccc(N)c4)nn3)C(=O)O[C@]12C (stereo partly drawn) [FSM-21877] | > 32 | 1 (≈ 1.08 µM) | 16 (≈ 17.2 µM) | 8 (≈ 8.61 µM) | > 32 | 32 (≈ 34.4 µM) | > 32 | > 32 | > 32 | > 32 | 32 | 0.5 | 0.5 (≈ 0.538 µM) | 16 (≈ 17.2 µM) | 8 (≈ 8.61 µM) | > 32 | > 32 | > 32 | 16 (≈ 17.2 µM) | 32 (≈ 34.4 µM) | MIC (P. aeruginosa; [21]): > 32 µg/mL; MIC (H. influenzae; [22]): 32 µg/mL (≈ 34.4 µM); MIC (H. influenzae; [23]): 32 µg/mL (≈ 34.4 µM) |
